# In PubChem BioAssay (NCI):
#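 1) Cells in 96-well plates. 2) Compound, 48 h, 5 concentrations. 3) Linear interpolation between surrounding doses. 4) Unreached endpoint = highest concentration. TGI marks complete inhibition of growth.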
# Assays:
# Test in all cases: NCI-60 cell line screen, 48 h
# [1] = test system: COLO 205 colon
# [2] = test system: HCT-15 colon
# [3] = test system: IGROV1 ovarian
# [4] = test system: K-562 leukemia
# [5] = test system: KM12 colon
# [6] = test system: MALME-3M melanoma
# [7] = test system: MOLT-4 leukemia
# [8] = test system: OVCAR-4 ovarian
# [9] = test system: SF-295 CNS
# [10] = test system: UO-31 renal
SMILES,TGI [1],TGI [2],TGI [3],TGI [4],TGI [5],TGI [6],TGI [7],TGI [8],TGI [9],TGI [10]
Cc1ccc(C(=O)Nc2ccc(S(=O)(=O)O)c3cc(S(=O)(=O)O)cc(S(=O)(=O)O)c23)cc1NC(=O)c1cccc(NC(=O)Nc2cccc(C(=O)Nc3cc(C(=O)Nc4ccc(S(=O)(=O)O)c5cc(S(=O)(=O)O)cc(S(=O)(=O)O)c45)ccc3C)c2)c1 (tested in a mixture with another compound),> 50 µM,> 50 µM,> 50 µM,> 50 µM,> 50 µM,> 50 µM,> 50 µM,> 50 µM,> 50 µM,> 50 µM
O=[N+]([O-])c1ccc2c(c1)c(S(=O)(=O)O)cc1nonc12,> 100 µM,> 100 µM,> 100 µM,> 100 µM,> 100 µM,> 100 µM,> 100 µM,> 100 µM,> 100 µM,> 100 µM
COC(=O)c1cc(C(=CCC[C@H]2CC[C@@]3(C)C(CCC4C3CC[C@@]3(C)C4CC[C@@H]3C(C)CCCC(C)C)C2)c2cc(Cl)c(OC(=O)c3ccccc3)c(C(=O)OC)c2)cc(Cl)c1OC(=O)c1ccccc1 (stereo not given in full),> 10 µM,> 10 µM,> 10 µM,> 10 µM,> 10 µM,> 10 µM,> 10 µM,> 10 µM,> 10 µM,> 10 µM
CCSc1nc(N)c2c(-c3ccccc3)c3c(nc2n1)CCC3,> 100 µM,> 100 µM,> 100 µM,> 100 µM,> 100 µM,> 100 µM,> 100 µM,> 100 µM,> 100 µM,9.02 µM
CC(=O)NC(Cc1ccc(OP(=O)(OCc2ccc([N+](=O)[O-])o2)N(C)CCCCCl)cc1)C(=O)NC(C)c1ccc(OCC2CCCCC2)c(C(N)=O)c1 (stereo not given),3.68 µM,> 100 µM,7.01 µM,> 100 µM,8.71 µM,5.65 µM,26.3 µM,11.9 µM,16.9 µM,45.2 µM
Clc1c(C(Cl)(Cl)Cl)nsc1N1CCCCC1,30.5 µM,79.9 µM,> 100 µM,53.2 µM,55.7 µM,40.8 µM,37.3 µM,> 100 µM,66.8 µM,44.3 µM
C(=C\c1cc(-c2ccc3ccccc3n2)nc2ccc3ccccc3c12)/c1ccc2ccccc2n1,> 100 µM,> 100 µM,> 100 µM,> 100 µM,> 100 µM,> 100 µM,> 100 µM,> 100 µM,> 100 µM,> 100 µM
C[C@]1(O)O[C@@H]2OCC[C@@H]2C2=C1C(=O)c1ccccc1C2=O,53.9 µM,39.1 µM,27.2 µM,59.5 µM,29.8 µM,29.5 µM,> 100 µM,28.4 µM,35.8 µM,31.8 µM
CC(=O)/C=C(\O)c1[nH]c(C(=O)O)cc1C1CCN(Cc2ccccc2)C1=O (stereo not given),42.9 µM,38.4 µM,61.5 µM,95.1 µM,> 100 µM,46.3 µM,53.9 µM,> 100 µM,48.7 µM,38.5 µM
Oc1ccc(O)c(CNc2ccccc2)c1,37.4 µM,42.2 µM,33.4 µM,> 100 µM,42.1 µM,31.9 µM,> 100 µM,28.6 µM,29.7 µM,27 µM
CC(=O)Oc1ccc(/C=C/C(=O)O[C@H]2CCCC[C@@H]2OC(=O)/C=C/c2ccc(OC(C)=O)c(OC(C)=O)c2)cc1OC(C)=O,46.6 µM,31.2 µM,64.9 µM,> 100 µM,60.2 µM,37.1 µM,34.8 µM,> 100 µM,19 µM,20.6 µM
CC(=O)O[C@H]1C[C@H]2C(=S)Nc3ccccc3C(=S)N2C1,> 100 µM,> 100 µM,> 100 µM,> 100 µM,> 100 µM,> 100 µM,> 100 µM,> 100 µM,> 100 µM,> 100 µM
CCN1CCC(O)(c2ccc(Oc3ccc(C)cc3)cc2)C(C(=O)c2ccc(Oc3ccc(C)cc3)cc2)C1 (stereo not given),26.1 µM,15.2 µM,25 µM,> 100 µM,17.8 µM,29.7 µM,69.1 µM,17.3 µM,21.4 µM,20.6 µM
CC(=O)N1c2ccccc2C(C)C1c1[nH]c2ccccc2c1C (stereo not given),27.9 µM,> 100 µM,> 100 µM,> 100 µM,38.4 µM,> 100 µM,77.3 µM,> 100 µM,32 µM,47.6 µM
COc1ccc2cc(C(=O)NCCCNC(=O)c3ccc4cc(OC)ccc4c3)ccc2c1,> 100 µM,> 100 µM,> 100 µM,> 100 µM,> 100 µM,> 100 µM,> 100 µM,> 100 µM,> 83.8 µM,> 100 µM
C=CCN(c1cc(OC)c2[nH]cc(C)c2c1[N+](=O)[O-])S(C)(=O)=O,> 100 µM,> 100 µM,> 100 µM,> 100 µM,> 100 µM,> 100 µM,> 100 µM,> 100 µM,> 100 µM,> 100 µM
